# Active and inactive are the calls of the source. The rule behind the calls is not given here.
# Columns and labels:
# [1] = Cmax in Sprague-Dawley rat at 2.5 mg/kg, iv measured upto 24 hrs by LC-MS/MS analysis; assay type: ADME, organism-based; parameters: dose 2.5 mg/kg, route intravenous; settings: in vivo
# [2] = test system: Mus musculus; experiment: Anti-VaD activity against UCCAO-induced spatial memory deficient C57BL/6J mouse model assessed as improvement in spatial learning and memory by measuring increase in frequency of platform area crossings at 10 mg/kg, po administered for 21 days by Morris water maze test; assay type: functional, organism-based
# [3] = test system: Mus musculus; experiment: Anti-VaD activity against UCCAO-induced spatial memory deficient C57BL/6J mouse model assessed as improvement in spatial learning and memory by measuring reduction in escape latency at 10 mg/kg, po administered for 21 days by Morris water maze test; assay type: functional, organism-based
# [4] = Half life in Sprague-Dawley rat at 2.5 mg/kg, iv measured upto 24 hrs by LC-MS/MS analysis; assay type: ADME, organism-based; settings: in vivo
# [5] = Tmax in Sprague-Dawley rat at 2.5 mg/kg, iv measured upto 24 hrs by LC-MS/MS analysis; assay type: ADME, organism-based; settings: in vivo
# [6] = target: T1, 3',5'-cyclic-AMP phosphodiesterase 4B (Homo sapiens, UniProt Q07343); experiment: Inhibition of human PDE4B2 (152 to 487 residues) expressed in Escherichia coli BL21 codon-plus cells using [3H]cAMP as substrate incubated for 15 mins by liquid scintillation counting method
# T1 sequence (Q07343 whole entry, the tested form may be a part): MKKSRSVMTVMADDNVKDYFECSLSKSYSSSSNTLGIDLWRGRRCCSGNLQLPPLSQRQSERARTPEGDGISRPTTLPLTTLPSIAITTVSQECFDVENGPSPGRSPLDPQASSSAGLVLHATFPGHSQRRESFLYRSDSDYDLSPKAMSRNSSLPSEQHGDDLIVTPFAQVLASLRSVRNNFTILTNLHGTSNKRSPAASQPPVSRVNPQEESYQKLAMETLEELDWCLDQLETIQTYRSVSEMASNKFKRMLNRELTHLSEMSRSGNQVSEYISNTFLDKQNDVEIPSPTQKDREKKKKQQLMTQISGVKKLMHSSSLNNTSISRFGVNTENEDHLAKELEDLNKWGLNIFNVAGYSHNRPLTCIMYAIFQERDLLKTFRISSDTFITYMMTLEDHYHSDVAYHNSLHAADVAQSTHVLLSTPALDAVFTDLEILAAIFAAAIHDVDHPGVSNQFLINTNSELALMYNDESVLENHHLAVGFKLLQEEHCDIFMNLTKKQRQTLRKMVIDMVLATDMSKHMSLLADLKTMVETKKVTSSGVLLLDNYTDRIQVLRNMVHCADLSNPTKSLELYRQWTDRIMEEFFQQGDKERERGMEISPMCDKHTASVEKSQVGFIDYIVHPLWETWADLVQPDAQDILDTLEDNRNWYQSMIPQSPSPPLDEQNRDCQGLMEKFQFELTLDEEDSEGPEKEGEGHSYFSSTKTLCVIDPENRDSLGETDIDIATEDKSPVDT
# [7] = target: T1, 3',5'-cyclic-AMP phosphodiesterase 4B; experiment: Inhibition of human PDE4B1 (1 to 736 residues) expressed in Escherichia coli BL21 codon-plus cells using [3H]cAMP as substrate incubated for 15 mins by liquid scintillation counting method
# [8] = Inhibition of human PDE4D7 (1 to 748 residues) expressed in Escherichia coli BL21 codon-plus cells using [3H]cAMP as substrate incubated for 15 mins by liquid scintillation counting method
# [9] = target: Dual specificity calcium/calmodulin-dependent 3',5'-cyclic nucleotide phosphodiesterase 1B (Homo sapiens, UniProt Q01064); experiment: Inhibition of human PDE1B (10 to 487 residues) expressed in Escherichia coli BL21 codon-plus cells using [3H]cAMP as substrate incubated for 15 mins by liquid scintillation counting method
# Sequence of Dual specificity calcium/calmodulin-dependent 3',5'-cyclic nucleotide phosphodiesterase 1B (Q01064 whole entry, the tested form may be a part): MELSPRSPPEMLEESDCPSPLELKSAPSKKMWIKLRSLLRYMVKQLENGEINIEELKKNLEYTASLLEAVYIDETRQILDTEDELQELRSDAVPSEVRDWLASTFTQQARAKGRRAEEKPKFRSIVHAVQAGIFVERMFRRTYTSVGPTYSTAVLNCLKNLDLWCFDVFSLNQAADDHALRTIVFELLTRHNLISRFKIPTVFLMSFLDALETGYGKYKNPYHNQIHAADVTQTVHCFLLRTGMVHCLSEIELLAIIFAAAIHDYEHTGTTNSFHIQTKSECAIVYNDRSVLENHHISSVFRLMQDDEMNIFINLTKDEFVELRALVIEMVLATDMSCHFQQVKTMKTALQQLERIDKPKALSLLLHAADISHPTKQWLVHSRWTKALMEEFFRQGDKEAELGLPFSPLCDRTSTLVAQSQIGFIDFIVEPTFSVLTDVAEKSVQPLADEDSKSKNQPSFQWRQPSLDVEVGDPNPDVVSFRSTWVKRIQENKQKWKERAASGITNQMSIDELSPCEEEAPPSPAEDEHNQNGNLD
# [10] = target: cGMP-dependent 3',5'-cyclic phosphodiesterase (Homo sapiens, UniProt O00408); experiment: Inhibition of human PDE2A (580 to 919 residues) expressed in Escherichia coli BL21 codon-plus cells using [3H]cGMP as substrate incubated for 15 mins by liquid scintillation counting method
# Sequence of cGMP-dependent 3',5'-cyclic phosphodiesterase (O00408 whole entry, the tested form may be a part): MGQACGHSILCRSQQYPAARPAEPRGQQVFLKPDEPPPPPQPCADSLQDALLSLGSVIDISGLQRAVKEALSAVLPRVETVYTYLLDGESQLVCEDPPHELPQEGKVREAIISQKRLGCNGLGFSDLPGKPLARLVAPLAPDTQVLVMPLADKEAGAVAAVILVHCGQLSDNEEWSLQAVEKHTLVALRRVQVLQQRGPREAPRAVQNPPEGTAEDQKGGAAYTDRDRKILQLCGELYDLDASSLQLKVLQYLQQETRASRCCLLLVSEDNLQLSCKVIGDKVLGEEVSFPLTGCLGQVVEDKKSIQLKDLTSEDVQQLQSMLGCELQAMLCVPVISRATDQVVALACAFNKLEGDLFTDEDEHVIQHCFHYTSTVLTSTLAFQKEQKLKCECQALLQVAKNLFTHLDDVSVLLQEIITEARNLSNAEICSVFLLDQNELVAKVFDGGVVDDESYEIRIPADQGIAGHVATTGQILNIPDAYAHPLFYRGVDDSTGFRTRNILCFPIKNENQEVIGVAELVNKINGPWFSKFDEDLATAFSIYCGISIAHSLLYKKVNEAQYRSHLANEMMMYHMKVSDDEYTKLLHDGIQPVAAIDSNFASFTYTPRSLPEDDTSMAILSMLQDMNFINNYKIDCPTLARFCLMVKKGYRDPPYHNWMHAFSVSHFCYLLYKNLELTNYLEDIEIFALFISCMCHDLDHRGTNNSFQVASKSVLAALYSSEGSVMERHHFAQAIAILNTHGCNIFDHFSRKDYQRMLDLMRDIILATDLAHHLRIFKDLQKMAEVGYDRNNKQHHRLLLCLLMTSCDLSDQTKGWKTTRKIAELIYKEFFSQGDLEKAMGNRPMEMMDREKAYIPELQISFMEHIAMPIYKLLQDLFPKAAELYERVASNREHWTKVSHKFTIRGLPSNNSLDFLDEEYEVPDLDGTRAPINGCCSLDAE
# [11] = target: cGMP-specific 3',5'-cyclic phosphodiesterase (Homo sapiens, UniProt O76074); experiment: Inhibition of human PDE5A1 (535 to 860 residues) expressed in Escherichia coli BL21 codon-plus cells using [3H]cGMP as substrate incubated for 15 mins by liquid scintillation counting method
# [12] = target: High affinity cAMP-specific and IBMX-insensitive 3',5'-cyclic phosphodiesterase 8A (Homo sapiens, UniProt O60658); experiment: Inhibition of human PDE8A1 (480 to 820 residues) expressed in Escherichia coli BL21 codon-plus cells using [3H]cAMP as substrate incubated for 15 mins by liquid scintillation counting method
# Sequence of High affinity cAMP-specific and IBMX-insensitive 3',5'-cyclic phosphodiesterase 8A (O60658 whole entry, the tested form may be a part): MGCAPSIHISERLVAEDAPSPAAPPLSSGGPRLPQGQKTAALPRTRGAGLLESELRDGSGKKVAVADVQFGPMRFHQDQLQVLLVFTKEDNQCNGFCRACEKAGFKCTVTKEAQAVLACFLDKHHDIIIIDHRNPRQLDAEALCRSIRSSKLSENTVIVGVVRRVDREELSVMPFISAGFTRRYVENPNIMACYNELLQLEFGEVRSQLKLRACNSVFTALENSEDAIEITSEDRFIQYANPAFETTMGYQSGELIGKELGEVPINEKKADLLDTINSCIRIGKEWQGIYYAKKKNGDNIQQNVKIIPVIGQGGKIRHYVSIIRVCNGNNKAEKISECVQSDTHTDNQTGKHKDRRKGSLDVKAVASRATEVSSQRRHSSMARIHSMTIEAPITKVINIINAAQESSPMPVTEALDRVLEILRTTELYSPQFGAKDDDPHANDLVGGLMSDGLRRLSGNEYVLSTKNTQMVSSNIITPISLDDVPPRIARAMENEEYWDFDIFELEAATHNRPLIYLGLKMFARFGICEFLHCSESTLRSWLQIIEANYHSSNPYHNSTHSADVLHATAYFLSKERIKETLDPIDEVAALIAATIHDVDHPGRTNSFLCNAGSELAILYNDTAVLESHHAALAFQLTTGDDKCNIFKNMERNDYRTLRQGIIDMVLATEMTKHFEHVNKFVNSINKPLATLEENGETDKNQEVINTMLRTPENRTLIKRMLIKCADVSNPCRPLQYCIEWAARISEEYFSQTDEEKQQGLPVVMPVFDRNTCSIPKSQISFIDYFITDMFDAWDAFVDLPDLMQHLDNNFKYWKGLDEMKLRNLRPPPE
# [13] = target: High affinity cGMP-specific 3',5'-cyclic phosphodiesterase 9A (Homo sapiens, UniProt O76083); experiment: Inhibition of human PDE9A2 (181 to 506 residues) expressed in Escherichia coli BL21 codon-plus cells using [3H]cGMP as substrate incubated for 15 mins by liquid scintillation counting method
# Sequence of High affinity cGMP-specific 3',5'-cyclic phosphodiesterase 9A (O76083 whole entry, the tested form may be a part): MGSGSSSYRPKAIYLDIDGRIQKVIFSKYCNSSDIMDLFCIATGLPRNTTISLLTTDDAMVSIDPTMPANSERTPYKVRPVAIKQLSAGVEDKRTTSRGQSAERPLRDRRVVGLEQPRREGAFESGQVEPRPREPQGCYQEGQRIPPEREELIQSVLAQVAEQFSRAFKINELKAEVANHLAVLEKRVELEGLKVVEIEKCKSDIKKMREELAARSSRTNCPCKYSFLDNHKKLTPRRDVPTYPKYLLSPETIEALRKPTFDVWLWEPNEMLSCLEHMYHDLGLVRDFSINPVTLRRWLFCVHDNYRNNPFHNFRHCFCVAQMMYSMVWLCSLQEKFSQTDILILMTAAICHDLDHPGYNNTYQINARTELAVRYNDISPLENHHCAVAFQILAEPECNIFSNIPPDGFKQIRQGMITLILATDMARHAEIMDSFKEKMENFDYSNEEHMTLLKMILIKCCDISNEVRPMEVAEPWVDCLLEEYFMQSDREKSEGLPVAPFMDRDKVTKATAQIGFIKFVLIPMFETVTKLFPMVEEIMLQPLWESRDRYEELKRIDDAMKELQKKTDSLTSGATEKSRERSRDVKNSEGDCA
# [14] = target: cAMP and cAMP-inhibited cGMP 3',5'-cyclic phosphodiesterase 10A (Homo sapiens, UniProt Q9Y233); experiment: Inhibition of human PDE10A2 (449 to 770 residues) expressed in Escherichia coli BL21 codon-plus cells using [3H]cAMP as substrate incubated for 15 mins followed by substrate addition by liquid scintillation counting method
# [15] = species: Homo sapiens; experiment: Selectivity index, ratio of IC50 for human PDE1B (10 to 487 residues) expressed in Escherichia coli BL21 codon-plus cells to IC50 for human PDE4D2 (86 to 413 residues) expressed in Escherichia coli BL21 codon-plus cells
# [16] = species: Homo sapiens; experiment: Selectivity index, ratio of IC50 for human PDE2A (580 to 919 residues) expressed in Escherichia coli BL21 codon-plus cells to IC50 for human PDE4D2 (86 to 413 residues) expressed in Escherichia coli BL21 codon-plus cells
# [17] = species: Homo sapiens; experiment: Selectivity index, ratio of IC50 for human PDE3A (679 to 1087 residues) expressed in Escherichia coli BL21 codon-plus cells to IC50 for human PDE4D2 (86 to 413 residues) expressed in Escherichia coli BL21 codon-plus cells
# [18] = species: Homo sapiens; experiment: Selectivity index, ratio of IC50 for human PDE5A1 (535 to 860 residues) expressed in Escherichia coli BL21 codon-plus cells to IC50 for human PDE4D2 (86 to 413 residues) expressed in Escherichia coli BL21 codon-plus cells
# [19] = species: Homo sapiens; experiment: Selectivity index, ratio of IC50 for human PDE8A1 (480 to 820 residues) expressed in Escherichia coli BL21 codon-plus cells to IC50 for human PDE4D2 (86 to 413 residues) expressed in Escherichia coli BL21 codon-plus cells
# [20] = Toxicity in Beagle dog assessed as animals exhibiting emesis at 10 mg/kg, po observed for 180 mins; assay type: organism-based, Canis lupus familiaris; settings: in vivo, 3 h
# [21] = AUC(0 to t) in Sprague-Dawley rat at 2.5 mg/kg, iv measured upto 24 hrs by LC-MS/MS analysis; assay type: ADME, organism-based; parameters: dose 2.5 mg/kg, time < 24 hr, route intravenous; settings: in vivo
# [22] = AUC(0 to infinity) in Sprague-Dawley rat at 2.5 mg/kg, iv measured upto 24 hrs by LC-MS/MS analysis; assay type: ADME, organism-based; parameters: dose 2.5 mg/kg, route intravenous, time infinity; settings: in vivo
# [23] = Cmax in Sprague-Dawley rat at 5 mg/kg, po measured upto 24 hrs by LC-MS/MS analysis; assay type: ADME, organism-based; parameters: dose 5 mg/kg, route oral; settings: in vivo
# [24] = AUC(0 to infinity) in Sprague-Dawley rat at 5 mg/kg, po measured upto 24 hrs by LC-MS/MS analysis; assay type: ADME, organism-based; parameters: dose 5 mg/kg, time infinity, route oral; settings: in vivo
# [25] = Oral bioavailability in Sprague-Dawley rat at 5 mg/kg measured upto 24 hrs by LC-MS/MS analysis; assay type: ADME, organism-based; settings: in vivo
# [26] = target: Cytochrome P450 2C9 (Homo sapiens, UniProt P11712); experiment: Inhibition of human CYP2C9; assay type: ADME
# Sequence of Cytochrome P450 2C9 (P11712 whole entry): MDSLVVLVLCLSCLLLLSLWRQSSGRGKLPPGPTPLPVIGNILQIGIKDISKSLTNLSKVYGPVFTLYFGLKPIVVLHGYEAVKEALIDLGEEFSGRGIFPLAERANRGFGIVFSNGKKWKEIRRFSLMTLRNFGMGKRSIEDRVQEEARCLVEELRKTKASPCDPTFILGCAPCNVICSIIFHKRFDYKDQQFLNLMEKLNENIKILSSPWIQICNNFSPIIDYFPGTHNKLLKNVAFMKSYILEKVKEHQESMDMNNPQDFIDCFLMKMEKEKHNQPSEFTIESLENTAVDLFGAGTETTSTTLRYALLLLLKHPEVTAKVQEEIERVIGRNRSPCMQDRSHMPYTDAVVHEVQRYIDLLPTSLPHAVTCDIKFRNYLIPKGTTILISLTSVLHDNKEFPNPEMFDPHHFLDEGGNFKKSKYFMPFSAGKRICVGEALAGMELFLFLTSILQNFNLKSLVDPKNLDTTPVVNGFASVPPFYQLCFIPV
# [27] = target: Cytochrome P450 2D6 (Homo sapiens, UniProt P10635); experiment: Inhibition of human CYP2D6; assay type: ADME
# Sequence of Cytochrome P450 2D6 (P10635 whole entry): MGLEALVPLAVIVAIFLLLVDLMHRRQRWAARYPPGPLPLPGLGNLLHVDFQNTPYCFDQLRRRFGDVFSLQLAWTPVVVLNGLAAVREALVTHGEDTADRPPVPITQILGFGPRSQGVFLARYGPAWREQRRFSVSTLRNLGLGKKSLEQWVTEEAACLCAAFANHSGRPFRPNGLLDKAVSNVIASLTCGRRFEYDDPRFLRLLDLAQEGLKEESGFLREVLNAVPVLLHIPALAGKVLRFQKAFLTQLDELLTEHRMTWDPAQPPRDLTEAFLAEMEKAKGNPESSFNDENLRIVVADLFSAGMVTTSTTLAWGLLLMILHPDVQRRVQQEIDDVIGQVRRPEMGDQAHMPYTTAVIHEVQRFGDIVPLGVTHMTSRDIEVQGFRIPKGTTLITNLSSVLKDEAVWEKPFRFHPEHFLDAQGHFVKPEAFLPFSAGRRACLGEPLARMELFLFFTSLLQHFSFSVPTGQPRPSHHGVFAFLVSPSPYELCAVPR
# [28] = target: Cytochrome P450 3A4 (Homo sapiens, UniProt P08684); experiment: Inhibition of human CYP3A4; assay type: ADME
# [29] = test system: Mus musculus; experiment: Anti-VaD activity against UCCAO-induced spatial memory deficient C57BL/6J mouse model assessed as improvement in spatial learning and memory by measuring increase in residence time on the platform at 10 mg/kg, po administered for 21 days by Morris water maze test; assay type: functional, organism-based
# [30] = test system: Mus musculus; experiment: Anti-VaD activity against UCCAO-induced spatial memory deficient C57BL/6J mouse model assessed as improvement in spatial learning and memory by measuring increase in latency time at 10 mg/kg, po administered for 21 days by passive avoidance test; assay type: functional, organism-based
# [31] = target: T1, 3',5'-cyclic-AMP phosphodiesterase 4B; experiment: Partial inhibition of human PDE4B1 (1 to 736 residues) expressed in Escherichia coli BL21 codon-plus cells using [3H]cAMP as substrate incubated with compound at high concentrations for 15 mins by liquid scintillation counting method relative to control
smiles,measurement,setting,value
COc1c(OCCCCCCC(=O)O)cc2oc3cc4c(c(O)c3c(=O)c2c1CC=C(C)C)C=CC(C)(C)O4,Cmax,[1],14100 ng/mL
same,Activity,[2],Active
same,Activity,[3],Active
same,half-life,[4],4.28 h
same,Tmax,[5],4.98 min
same,IC50,[6],0.01 µM
same,IC50,[7],0.008 µM
same,IC50,[8],0.009 µM
same,IC50,[9],> 10 µM
same,IC50,[10],> 10 µM
same,IC50,[11],3.39 µM
same,IC50,[12],> 10 µM
same,IC50,[13],> 10 µM
same,IC50,[14],> 10 µM
same,Ratio IC50,[15],> 580
same,Ratio IC50,[16],> 580
same,Ratio IC50,[17],> 580
same,Ratio IC50,[18],199
same,Ratio IC50,[19],> 580
same,Activity,[20],0%
same,AUC(0-t) at 24 h,[21],6670 ng·h/mL
same,AUC(0-inf),[22],6710 ng·h/mL
same,Cmax,[23],661 ng/mL
same,AUC(0-inf),[24],4790 ng·h/mL
same,bioavailability,[25],28%
same,IC50,[26],> 10 µM
same,IC50,[27],> 10 µM
same,IC50,[28],> 10 µM
same,Activity,[29],Active
same,Activity,[30],Active
same,inhibition,[31],60%

# — ChEMBL document CHEMBL4402573, “Discovery and Optimization of α-Mangostin Derivatives as Novel PDE4 Inhibitors for the Treatment of Vascular Dementia” (J Med Chem, 2020)
